Activity calls are given as the source filed them.
What was measured:
[1] = biological target: Induced myeloid leukemia cell differentiation protein Mcl-1 (Homo sapiens, UniProt Q07820); assay type: functional
[2] = microbe, parasite or virus in culture; assay type: functional; conditions: Mycobacterium tuberculosis
[3] = cells; assay type: functional
[4] = biological target: T1, Leucine aminopeptidase (Plasmodium falciparum 3D7, UniProt Q8IL11); experiment: P. falciparum M17LAP inhibitors, primary screen, biochemical, fluorogenic H-Leu-NHMec substrate, 1536-well (AID 1619); assay type: functional
T1 sequence (Q8IL11 whole entry): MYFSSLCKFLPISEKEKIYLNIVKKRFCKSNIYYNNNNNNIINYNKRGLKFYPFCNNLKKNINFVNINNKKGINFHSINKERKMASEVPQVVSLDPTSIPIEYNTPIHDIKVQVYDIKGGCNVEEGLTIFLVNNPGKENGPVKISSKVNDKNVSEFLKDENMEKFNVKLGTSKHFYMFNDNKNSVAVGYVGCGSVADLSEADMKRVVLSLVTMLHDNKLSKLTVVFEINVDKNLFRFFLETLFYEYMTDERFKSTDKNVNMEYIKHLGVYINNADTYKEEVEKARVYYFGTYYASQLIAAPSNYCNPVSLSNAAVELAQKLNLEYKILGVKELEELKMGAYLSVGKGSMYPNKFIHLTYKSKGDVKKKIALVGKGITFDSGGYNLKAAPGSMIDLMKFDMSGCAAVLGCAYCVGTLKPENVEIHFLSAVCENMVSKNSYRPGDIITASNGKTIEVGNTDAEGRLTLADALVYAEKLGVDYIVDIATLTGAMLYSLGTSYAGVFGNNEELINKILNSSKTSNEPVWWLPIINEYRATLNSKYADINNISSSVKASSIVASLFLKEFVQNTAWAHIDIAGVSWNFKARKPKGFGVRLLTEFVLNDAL

[5] = growth inhibition of PfATP4-mutant resistant parasites – NITD609-resistant line, SYBR Green, dry powder, dose response (AID 1159571); assay type: functional, cell-based;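 also: parasites synchronized at ring stage by sorbitol before testing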
[6] = Dd2 malaria parasite growth inhibition potency – SYBR Green, dry powder samples, dose response (AID 1159566); assay type: functional, cell-based;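 also: potency for growth inhibition with lower SYBR green DNA signal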
[7] = growth inhibition of yeast DHODH-expressing 3D7 parasites – SYBR Green, dry powder samples, dose response (AID 1159570); assay type: functional, cell-based;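 also: parasite growth measured after 72 hours of compound exposure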
[8] = toxicity to human HepG2 hepatoma cells – cell-based, plate reader, dry powder samples, cytotoxicity control, dose response (AID 1159569); assay type: functional;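 also: inhibitor potency with signal falling toward the positive control level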
[9] = P. falciparum Dd2 growth inhibitors, dose response, SYBR Green, cherry-picked samples (AID 1159567); assay type: functional, cell-based
[10] = biological target: T2, Histone-lysine N-methyltransferase NSD2 (Homo sapiens, UniProt O96028); assay type: biochemical
T2 sequence (O96028 whole entry): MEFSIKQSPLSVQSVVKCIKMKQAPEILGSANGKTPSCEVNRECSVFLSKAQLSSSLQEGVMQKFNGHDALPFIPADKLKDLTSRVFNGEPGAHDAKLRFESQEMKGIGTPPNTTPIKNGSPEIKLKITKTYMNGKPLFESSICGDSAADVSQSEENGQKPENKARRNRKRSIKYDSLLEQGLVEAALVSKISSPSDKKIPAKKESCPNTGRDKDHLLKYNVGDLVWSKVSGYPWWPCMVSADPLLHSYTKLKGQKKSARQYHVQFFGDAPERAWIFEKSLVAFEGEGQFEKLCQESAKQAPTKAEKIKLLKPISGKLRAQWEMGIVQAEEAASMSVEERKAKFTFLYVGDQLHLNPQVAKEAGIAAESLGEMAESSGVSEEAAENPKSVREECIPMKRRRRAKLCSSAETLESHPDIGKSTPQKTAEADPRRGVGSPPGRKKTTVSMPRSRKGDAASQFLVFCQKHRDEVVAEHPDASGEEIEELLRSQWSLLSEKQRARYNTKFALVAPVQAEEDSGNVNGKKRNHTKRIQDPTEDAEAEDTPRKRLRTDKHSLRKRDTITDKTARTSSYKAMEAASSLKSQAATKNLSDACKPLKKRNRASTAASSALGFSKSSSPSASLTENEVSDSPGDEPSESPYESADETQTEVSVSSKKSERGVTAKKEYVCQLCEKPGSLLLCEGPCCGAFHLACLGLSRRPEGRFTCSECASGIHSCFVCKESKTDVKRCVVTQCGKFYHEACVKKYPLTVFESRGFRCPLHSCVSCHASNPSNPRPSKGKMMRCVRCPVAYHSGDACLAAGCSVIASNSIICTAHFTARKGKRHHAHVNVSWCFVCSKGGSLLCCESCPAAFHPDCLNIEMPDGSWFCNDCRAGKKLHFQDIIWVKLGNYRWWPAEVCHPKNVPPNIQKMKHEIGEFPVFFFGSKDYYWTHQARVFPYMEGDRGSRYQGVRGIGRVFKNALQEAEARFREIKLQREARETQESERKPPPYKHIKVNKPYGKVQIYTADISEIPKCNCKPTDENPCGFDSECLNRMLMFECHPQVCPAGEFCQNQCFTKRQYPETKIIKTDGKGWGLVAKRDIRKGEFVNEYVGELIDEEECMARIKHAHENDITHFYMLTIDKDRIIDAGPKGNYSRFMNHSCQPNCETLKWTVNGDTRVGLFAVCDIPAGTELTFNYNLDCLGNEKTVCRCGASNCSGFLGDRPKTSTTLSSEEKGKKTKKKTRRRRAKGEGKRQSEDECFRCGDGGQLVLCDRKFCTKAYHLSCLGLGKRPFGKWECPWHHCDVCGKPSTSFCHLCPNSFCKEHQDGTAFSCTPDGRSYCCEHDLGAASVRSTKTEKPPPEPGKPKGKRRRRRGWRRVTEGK

Chain of Induced myeloid leukemia cell differentiation protein Mcl-1 (Q07820 whole entry): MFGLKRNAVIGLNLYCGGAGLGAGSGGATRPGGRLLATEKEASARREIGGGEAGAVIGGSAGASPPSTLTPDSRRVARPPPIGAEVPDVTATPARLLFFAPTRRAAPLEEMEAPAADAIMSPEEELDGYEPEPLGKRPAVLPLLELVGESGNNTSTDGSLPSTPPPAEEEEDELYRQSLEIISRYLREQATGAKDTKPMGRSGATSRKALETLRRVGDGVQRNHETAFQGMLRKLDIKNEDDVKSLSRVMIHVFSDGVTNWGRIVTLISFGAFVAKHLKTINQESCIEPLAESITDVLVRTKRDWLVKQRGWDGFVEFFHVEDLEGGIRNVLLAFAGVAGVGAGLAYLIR

For `O=C1Oc2ccccc2C(=O)/C1=C/c1c[nH]c2ccccc12`, which IC50 [1] is on record?
The IC50 was 5560 nM (active).

What about the CC50 [2] of the same molecule?
Its CC50 is 30900 nM (active).

With `CCCCN1C(=O)NC(=O)/C(=C/c2ccc[nH]2)C1=O` as the molecule, how does the IC50 [3] read?
Its IC50 is 1460 nM (active).

And the CC50 [2]?
Its CC50 is > 40000 nM (active).

With `C=CCc1c(C)nc(SC)nc1Nc1ccc(C(C)=O)cc1` as the molecule, how does the CC50 [2] read?
The CC50 was > 40000 nM (active).

With `Cc1cc(O)nc(SCC(=O)Nc2cccc3ccccc23)c1C#N` as the molecule, how does the IC50 [4] read?
The IC50 was 2200 nM (active).

For `O=C(Nc1ccc(-c2ccccc2)cc1)[C@H]1[C@H](CO)[C@H]2Cn3c(cccc3=O)[C@@H]1N2Cc1ccccc1`, which AC50 [5] is on record?
Its AC50 is 921 nM (active).

What about the AC50 [6] of the same molecule?
Its AC50 is 1030 nM (active).

What about the AC50 [7] of the same molecule?
Its AC50 is 1240 nM (active).

What about the AC50 [8] of the same molecule?
The AC50 was 48400 nM (active).

And the AC50 [9]?
The AC50 was 1440 nM (active).

What does the source list for `C[C@@H]1CN([C@@H](C)CO)C(=O)c2c(c3ccccc3n2C)-c2ccccc2CO[C@@H]1CN(C)Cc1ccc(Oc2ccccc2)cc1`?
AC50 [5]: 906 nM (active); AC50 [6]: 590 nM (active); AC50 [7]: 3440 nM (active); AC50 [8]: 22800 nM (active); AC50 [9]: 1300 nM (active)

For `O=C(CN1C(=O)C2CC=CCC2C1=O)NCC1COc2ccccc2O1` (stereo not given), which IC50 [4] is on record?
Its IC50 is 8660 nM (active).

For `C[C@@H]1CN([C@H](C)CO)C(=O)c2ccccc2-c2ccccc2CO[C@H]1CN(C)C(=O)Nc1cccc(C(F)(F)F)c1`, which AC50 [5] is on record?
Its AC50 is 3230 nM (active).

What about the AC50 [6] of the same molecule?
The AC50 was 1030 nM (active).

What about the AC50 [7] of the same molecule?
Its AC50 is 1190 nM (active).

And the AC50 [8]?
Its AC50 is 86300 nM (active).

What about the AC50 [9] of the same molecule?
The AC50 was 1450 nM (active).

With `CCCN(CCC)CCCNC(=O)c1cn(CC)c2ccc(S(=O)(=O)N3CCc4ccccc4C3)cc2c1=O` as the molecule, how does the AC50 [10] read?
Its AC50 is > 20000 nM (inactive).

Which AC50 [5] does the source give for `C[C@@H]1CN([C@@H](C)CO)C(=O)c2c(c3ccccc3n2C)-c2ccccc2CO[C@@H]1CN(C)C(=O)c1cc(Cl)cc(Cl)c1` here?
Its AC50 is 1500 nM (active).

And the AC50 [6]?
Its AC50 is 1880 nM (active).

What about the AC50 [7] of the same molecule?
Its AC50 is 2020 nM (active).

And the AC50 [8]?
Its AC50 is 22400 nM (active).

What about the AC50 [9] of the same molecule?
Its AC50 is 2110 nM (active).

What does the source list for `COc1ccc2c3c(n(C)c2c1)[C@@H](CO)NCC31CCN(Cc2ccc(-c3ccccn3)cc2)CC1`?
AC50 [5]: 560 nM (active); AC50 [6]: 440 nM (active); AC50 [7]: 447 nM (active); AC50 [8]: 19400 nM (active); AC50 [9]: 696 nM (active)

Which AC50 [10] does the source give for `CCN1CCC(CNCc2cn(-c3ccc(OC)cc3)nc2-c2ccccc2Cl)C1` (stereo not given) here?
Its AC50 is > 20000 nM (inactive).

Which IC50 [4] does the source give for `CCN(c1cccc(C)c1)S(=O)(=O)c1ccc2[nH]c(=O)c(=O)[nH]c2c1` here?
The IC50 was 1620 nM (active).
